pEC50: −log10 of the molar value.

These results are taken from patent US11591333B2, “Substituted pyrrolo[2,3-d]pyrimidines as janus kinase inhibitors” (CINKATE PHARM TECH (SHANGHAI) CO.,LTD., priority 2016, dated 2023).

For assay [1], the system named is mouse spleen cells. Put plainly: Mitogen ConA-induced mouse spleen cell proliferation (CCK8). The assay is classed as cell-based. As to conditions: for pEC50: mouse spleen cells, ConA as stimulus, read-out: Inhibition activity (EC50), ConA induction; for concentration at which inhibition of lymphocyte proliferation began: ConA as the stimuli; for inhibition to the non-specific immunosuppression induced by mitogen: in words, compared with specific immunity. As to the method:
[…] 5*10^5/well, with or without 50 uL of ConA at a concentration of 2.5 ug/uL as well as 50 uL inhibitors at a different concentration, while the negative control wells were supplemented with 50 uL of complete 1640 medium. After 48 hours of culture, the cell culture supernatant was collected for 100 uL/well for subsequent ELISA, and 10 uL/well of CCK8 reagent was added to detect the cell proliferation. The proliferation of immune cells was microscopic observed in each group.
[…] mouse spleen cells were adjusted to a cell concentration of 5*10^6/mL in complete 1640 medium, […], i.e., 5*10^5/well, […], as well as 50 uL of different concentrations of inhibitor (compound 1-6) while negative control well was supplemented with 50 uL of complete 1640 medium. […] The proliferation of immune cells was microscopic observed in each group, and the EC50 value was calculated.

Assay [2] concerns mouse spleen cells. In words: CD3/CD28 antibody-induced mouse spleen cell proliferation (CCK8). It counts as cell-based. The conditions noted are these: for pEC50: mouse spleen cells, CD3/CD28 antibodies as stimulus, read-out: Inhibition activity (EC50), CD3/CD28; for concentration at which inhibition of lymphocyte proliferation began: Anti-CD3/CD28 as the stimuli.
Another assay deals with JAK2/JAK1. In words: JAK enzyme activity inhibition, JAK2 versus JAK1 selectivity. The assay is classed as biochemical. As to conditions: ratio of JAK2 IC50 to JAK1 IC50. How it is done:
(§1) The tested compounds were dissolved in DMSO to provide a 10 mM mother solution. The compound was diluted to 1 mM in DMSO before use, and was gradient diluted by 3 folds to altogether 11 concentrations. After the buffer was prepared, JAK1, JAK2, JAK3 and the substrate were mixed with pre-diluted compounds in different concentrations, and allowed to stand at room temperature for 30 minutes, while each concentration was duplicated for twice. ATP was added and reacted at room temperature for 90 minutes, and antibody was added for detection after the reaction was completed.

Another assay relates to JAK3/JAK1. In words: JAK enzyme activity inhibition, JAK3 versus JAK1 selectivity. It counts as biochemical. The conditions noted are these: ratio of JAK3 IC50 to JAK1 IC50. As to the method: as §1

As for `C/C(O)=C(\C#N)C(=O)Nc1ccc(C(F)(F)F)cc1` [Compound A771726, A771726, reference compound], the pEC50 in the assay on mouse spleen cells [1] and in the assay on mouse spleen cells [2] was under 3.70 in each case.

As to “2-cyano-3-hydroxy-2-butene-{4-[methyl-(7H-pyrrolo[2,3-d]pyrimidin-4-yl)-amino]-cyclohexyl]-amide [Compound 5]”, the values for the pEC50 in the assay on mouse spleen cells [1] and with mouse spleen cells [2] were under 3.70 and under 4.00, respectively. Further, the “Selectivity fold JAK2/JAK1 IC50 ratio” value in the assay with JAK2/JAK1 is on record as over 10 fold. Further, in the assay on JAK3/JAK1, the “Selectivity fold JAK3/JAK1 IC50 ratio” value is reported as over 10 fold.

For the compound “2-cyano-3-hydroxy-2-butene-{4-[methyl-(7H-pyrrolo[2,3-d]pyrimidin-4-yl)-amino]-phenyl]-amide [Compound 4]”, in the assay on mouse spleen cells [1], the “concentration at which inhibition of lymphocyte proliferation began” value (“concentration at which inhibition” for short) is 100 µM and the pEC50 was 4.21. Moreover, in the assay with mouse spleen cells [2], the “concentration at which inhibition” value was 50 µM and the pEC50 was 4.51. The “Selectivity fold JAK2/JAK1 IC50 ratio” value in the assay on JAK2/JAK1 is 7 fold. Also, the “Selectivity fold JAK3/JAK1 IC50 ratio” value with JAK3/JAK1 stood at 5 fold.

`Cc1oncc1C(=O)Nc1ccc(N(C)c2ncnc3[nH]ccc23)cc1` [Compound 2]: the figures for the “concentration at which inhibition” value in the assay with mouse spleen cells [1] and in the assay with mouse spleen cells [2] were 10 µM and 50 µM, respectively. The pEC50 is 4.39 in the assay with mouse spleen cells [1] and 4.82 in the assay with mouse spleen cells [2]. Further, the “Selectivity fold JAK2/JAK1 IC50 ratio” value in the assay on JAK2/JAK1 was over 10 fold. In addition, in the assay on JAK3/JAK1, the “Selectivity fold JAK3/JAK1 IC50 ratio” value is recorded as over 10 fold.

Turning to `CN(c1ccc(N)cc1)c1ncnc2[nH]ccc12` [Compound 1, N-Methyl-N-(7H-pyrrolo[2,3-d]pyrimidin-4-yl)phenyl-1,4-diamine], in the assay with mouse spleen cells [1], the “concentration at which inhibition” value worked out at 10 µM, the “inhibition to the non-specific immunosuppression induced by mitogen” value is on record as “weak” and the pEC50 was 4.27. In the assay with mouse spleen cells [2], the “concentration at which inhibition” value is 10 µM and the pEC50 is 4.64. Moreover, the “Selectivity fold JAK2/JAK1 IC50 ratio” value in the assay with JAK2/JAK1 was 7 fold. In the assay with JAK3/JAK1, the “Selectivity fold JAK3/JAK1 IC50 ratio” value is given as 2 fold.

As to “5-methyl-isoxazole-{4-methyl-(7H-pyrrolo[2,3-d]pyrimidin-4-yl)-amino]-cyclohex yl}-amine [Compound 3]”, in the assay with mouse spleen cells [1], the “concentration at which inhibition” value came to 10 µM, the “inhibition to the non-specific immunosuppression induced by mitogen” value is “weak” and the pEC50 was 4.04. For the same compound, in the assay with mouse spleen cells [2], the “concentration at which inhibition” value amounted to 10 µM and the pEC50 was 4.18. In addition, the “Selectivity fold JAK2/JAK1 IC50 ratio” value in the assay with JAK2/JAK1 is recorded as over 10 fold. Moreover, the “Selectivity fold JAK3/JAK1 IC50 ratio” value with JAK3/JAK1 is given as over 10 fold.

Turning to `C[C@@H]1CCN(C(=O)CC#N)C[C@@H]1N(C)c1ncnc2[nH]ccc12` [Tofatinib, reference compound], the “Selectivity fold JAK2/JAK1 IC50 ratio” value in the assay with JAK2/JAK1 came out at 2 fold. In addition, the “Selectivity fold JAK3/JAK1 IC50 ratio” value in the assay on JAK3/JAK1 is given as under 1 fold.
